ChEMBL document CHEMBL1201862, “PubChem BioAssay data set” (2004)
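Protocol summary: plate cells (96-well), add compound at 5 concentrations, incubate 48 h, interpolate endpoints linearly. GI50: concentration for 50% inhibition of growth.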 The source made the active and inactive calls. Cut-off read from the data, not from the text of the source: active = GI50 up to about 1.1 µM and inactive = higher.

Legend:
Test in all cases: NCI anticancer screen, dose series, 48 h
TK-10 = test system: TK-10
IGROV-1 = test system: IGROV-1
LOX IMVI = test system: LOX IMVI
SNB-19 = test system: SNB-19
K562 = test system: K562
SK-MEL-2 = test system: SK-MEL-2
CCRF-CEM = test system: CCRF-CEM
Hs-578T = test system: Hs-578T
HCT-15 = test system: HCT-15
NCI-H226 = test system: NCI-H226
COLO 205 = test system: COLO 205
RPMI-8226 = test system: RPMI-8226
DU-145 = test system: DU-145
CAKI-1 = test system: CAKI-1
RXF 393 = test system: RXF 393
SN12C = test system: SN12C
UACC-257 = test system: UACC-257
HOP-92 = test system: HOP-92
HL-60 = test system: HL-60

| SMILES | GI50 (TK-10) | GI50 (IGROV-1) | GI50 (LOX IMVI) | GI50 (SNB-19) | GI50 (K562) | GI50 (SK-MEL-2) | GI50 (CCRF-CEM) | GI50 (Hs-578T) | GI50 (HCT-15) | GI50 (NCI-H226) | GI50 (COLO 205) | GI50 (RPMI-8226) | GI50 (DU-145) | GI50 (CAKI-1) | GI50 (RXF 393) | GI50 (SN12C) | GI50 (UACC-257) | GI50 (HOP-92) | GI50 (HL-60) |
| --- | --- | --- | --- | --- | --- | --- | --- | --- | --- | --- | --- | --- | --- | --- | --- | --- | --- | --- | --- |
| COc1ccc(/C=N/Nc2nnc3c(n2)c2ccccc2c2nn(-c4ccccc4Cl)nc23)cc1 | > 100 µM (inactive) | > 100 µM (inactive) | > 100 µM (inactive) | > 100 µM (inactive) | > 100 µM (inactive) | > 100 µM (inactive) | > 100 µM (inactive) | 71.6 µM (inactive) | > 100 µM | > 100 µM (inactive) | > 100 µM (inactive) | > 100 µM (inactive) | > 100 µM (inactive) | > 100 µM (inactive) | > 100 µM (inactive) | > 100 µM (inactive) | > 100 µM (inactive) | > 100 µM (inactive) |  |
| Cc1ccc(-c2nc3n(c2/C=N\N=C(N)N)CCS3)cc1 | 19 µM (inactive) | 15 µM (inactive) | 16.7 µM (inactive) | 15.1 µM (inactive) | 19.8 µM (inactive) | 12.9 µM (inactive) | 22.1 µM (inactive) | 18.1 µM (inactive) | 17.5 µM |  | 14.5 µM (inactive) | 32.8 µM (inactive) | 13.8 µM (inactive) | 17.9 µM (inactive) | 15.8 µM (inactive) | 16.1 µM (inactive) | 16.6 µM (inactive) | 19.4 µM (inactive) | 33.3 µM (inactive) |
| C[N+]1(C)C2CC(OC(=O)C(CO)c3ccccc3)CC1C1OC12 (centres undefined) | > 100 µM (inactive) | > 100 µM (inactive) | > 100 µM (inactive) | > 100 µM (inactive) | > 100 µM (inactive) | > 100 µM (inactive) | > 100 µM (inactive) | > 100 µM (inactive) | > 100 µM | > 100 µM (inactive) | > 100 µM (inactive) | > 100 µM (inactive) | > 100 µM (inactive) | > 100 µM (inactive) | > 100 µM (inactive) | > 100 µM (inactive) | > 100 µM (inactive) |  | > 100 µM (inactive) |
| CC(=O)OCC1OC(n2c(N)c(C#N)c(-c3cccc(Cl)c3)c(C#N)c2=S)C(OC(C)=O)C(OC(C)=O)C1OC(C)=O (centres undefined) | 19.9 µM (inactive) | 30.5 µM (inactive) | 14.7 µM (inactive) | 31.5 µM (inactive) | 28.2 µM (inactive) | 19 µM (inactive) | 3.31 µM (inactive) | 20 µM (inactive) | 22.5 µM |  | 16.2 µM (inactive) | 10.9 µM (inactive) | 18.2 µM (inactive) | 26.8 µM (inactive) | 3.9 µM (inactive) | 37.6 µM (inactive) | 22 µM (inactive) | 23 µM (inactive) | 17.9 µM (inactive) |
| CC12CP(=O)(c3ccccc3)CC1c1ccccc1C2c1ccccc1 (centres undefined) | 62.2 µM (inactive) | 3.44 µM (inactive) |  | 48 µM (inactive) | 5.9 µM (inactive) | 28 µM (inactive) | 3.04 µM (inactive) | 26.3 µM (inactive) | 13.7 µM | 19.7 µM (inactive) |  |  | 21 µM (inactive) |  | 20.8 µM (inactive) | 17.9 µM (inactive) |  | 22.1 µM (inactive) | 7.52 µM (inactive) |
| CN(C)c1ccc(C(=C2C=CC(=[N+](C)C)C=C2)c2c(O)c(S(=O)(=O)[O-])cc3cc(S(=O)(=O)O)ccc23)cc1 | > 100 µM (inactive) | > 100 µM (inactive) | > 100 µM (inactive) | > 100 µM (inactive) | > 100 µM (inactive) | > 100 µM (inactive) |  | > 100 µM (inactive) | > 100 µM | > 100 µM (inactive) | > 100 µM (inactive) | > 100 µM (inactive) | > 100 µM (inactive) | > 100 µM (inactive) | > 100 µM (inactive) | > 100 µM (inactive) | > 100 µM (inactive) | > 100 µM (inactive) |  |
| COc1ccc(Cn2c(=O)c(OS(=O)(=O)C(F)(F)F)c(C)c3cc4ccccc4cc32)cc1 | > 100 µM (inactive) | > 100 µM (inactive) | > 100 µM (inactive) | > 100 µM (inactive) | > 100 µM (inactive) | > 100 µM (inactive) | > 100 µM (inactive) | > 100 µM (inactive) | > 100 µM | > 100 µM (inactive) | > 100 µM (inactive) |  | > 100 µM (inactive) | > 100 µM (inactive) | > 100 µM (inactive) | > 100 µM (inactive) | 36 µM (inactive) |  | > 100 µM (inactive) |
| Nc1ccccc1/N=C/c1cc2cc([N+](=O)[O-])ccc2s1 | 15.2 µM (inactive) | 7.59 µM (inactive) | 13.9 µM (inactive) | 14.1 µM (inactive) | 12.7 µM (inactive) | 12.7 µM (inactive) | 5.01 µM (inactive) | 15.1 µM (inactive) | 43.3 µM |  | 17.8 µM (inactive) | 5.52 µM (inactive) | 12.6 µM (inactive) | 15.5 µM (inactive) | 14.5 µM (inactive) | 23.8 µM (inactive) | 19.5 µM (inactive) | 18.9 µM (inactive) | 7.43 µM (inactive) |
| O=C1CC(C(OCc2ccccc2)C(OCc2ccccc2)C(OCc2ccccc2)C(COCc2ccccc2)OCc2ccccc2)CC(=O)N1 (centres undefined) | > 100 µM (inactive) | > 100 µM (inactive) | > 100 µM (inactive) | > 100 µM (inactive) | > 100 µM (inactive) |  | > 100 µM (inactive) | > 100 µM (inactive) | > 100 µM |  |  | > 100 µM (inactive) | > 100 µM (inactive) |  | 6.52 µM (inactive) | > 100 µM (inactive) | > 100 µM (inactive) | 18 µM (inactive) | > 100 µM (inactive) |
| CC(C)COC(c1ccc2c(c1)OCO2)C(C)Br (centres undefined) | 30.9 µM (inactive) | 32.8 µM (inactive) | 17.4 µM (inactive) | 33.7 µM (inactive) | 46.7 µM (inactive) | 21.8 µM (inactive) |  | 25.9 µM (inactive) | 23.3 µM | 26.4 µM (inactive) | 22.6 µM (inactive) | 21.6 µM (inactive) | 33.1 µM (inactive) | 30.3 µM (inactive) | 10.5 µM (inactive) | 20.7 µM (inactive) | 23 µM (inactive) | 21.7 µM (inactive) |  |
| Oc1ccc(CCNCc2cc3c(cc2Br)OCO3)cc1 | 75.9 µM (inactive) | > 100 µM (inactive) | 88.9 µM (inactive) | > 100 µM (inactive) | 34.8 µM (inactive) | 21.7 µM (inactive) | 73.8 µM (inactive) | > 100 µM (inactive) | > 100 µM | 32.5 µM (inactive) | 18.8 µM (inactive) | 27.9 µM (inactive) | > 100 µM (inactive) |  | 69.5 µM (inactive) | 66.8 µM (inactive) | 50.2 µM (inactive) | > 100 µM (inactive) | 28.1 µM (inactive) |
| O=C1C(=C2SC(c3ccccc3)(c3ccccc3)c3ccccc32)C(=O)c2ccccc21 | > 100 µM (inactive) | > 100 µM (inactive) | > 100 µM (inactive) | > 100 µM (inactive) | > 100 µM (inactive) |  | > 100 µM (inactive) | > 100 µM (inactive) | > 100 µM | > 100 µM (inactive) | > 100 µM (inactive) | > 100 µM (inactive) | > 100 µM (inactive) | > 100 µM (inactive) | > 100 µM (inactive) | > 100 µM (inactive) | 72.4 µM (inactive) | > 100 µM (inactive) |  |
| Cc1cccc(NC(=S)Nc2cccc(Cl)c2)n1 | > 100 µM (inactive) | 44.2 µM (inactive) | > 100 µM (inactive) | > 60.4 µM (inactive) | > 100 µM (inactive) | > 72.8 µM (inactive) | > 100 µM (inactive) | > 65.3 µM (inactive) | > 100 µM | > 56.9 µM (inactive) | > 100 µM (inactive) | > 100 µM (inactive) | > 100 µM (inactive) | > 100 µM (inactive) | 29.7 µM (inactive) | > 100 µM (inactive) | > 100 µM (inactive) |  | > 100 µM (inactive) |
| CC(=O)OCC(OC(C)=O)C1C[C@H]2O[C@@H]3[C@H](C[C@H]2O1)O[C@@]1(C[C@@H]3C)C[C@H](C)[C@@H]2O[C@]3(C[C@@H]2O1)C[C@H]1O[C@H]2[C@H](C)[C@H]4OC(=O)CC5CC[C@H]6OC7[C@H]8O[C@]9(CC[C@H]%10CC(O)(CO)[C@H](CC[C@H]%11C[C@@H](C)C(O)(CO)C(C[C@@H]4O[C@H]2C[C@H]1O3)O%11)O%10)CC8O[C@@H]7[C@@H](O9)[C@H]6O5 (some centres undefined) |  | 0.00436 µM (active) | 0.0146 µM (active) | 0.0194 µM (active) | 0.00116 µM (active) | 0.116 µM (active) | 0.00944 µM (active) | 0.00154 µM (active) | 0.00486 µM | 0.0122 µM (active) | 0.00445 µM (active) | 0.00282 µM (active) | 0.00386 µM (active) | 0.0127 µM (active) | 0.00253 µM (active) | 0.0227 µM (active) | 0.00555 µM (active) | 0.0504 µM (active) |  |
| COc1ccc(/C=C2/S/C(=N\c3ccccc3)N(NC(=O)Cc3ccccc3)C2=O)c(OC)c1 | > 100 µM (inactive) | > 100 µM (inactive) |  | > 100 µM (inactive) | 89.9 µM (inactive) | > 100 µM (inactive) | 82.6 µM (inactive) | > 100 µM (inactive) | > 100 µM | > 100 µM (inactive) | > 100 µM (inactive) | > 100 µM (inactive) | > 100 µM (inactive) |  | > 100 µM (inactive) | > 100 µM (inactive) | > 100 µM (inactive) | 3.37 µM (inactive) |  |
| CC(C)CC(Nc1c(O)ccc2ccccc12)C(=O)O (centres undefined) | 39.9 µM (inactive) | 32.7 µM (inactive) | 31.7 µM (inactive) | 37.6 µM (inactive) | 58.7 µM (inactive) | 17.1 µM (inactive) | 0.959 µM (active) | 21.6 µM (inactive) | 36.9 µM | 20 µM (inactive) | > 100 µM (inactive) | 28.2 µM (inactive) | 19.2 µM (inactive) | 21.2 µM (inactive) | 12.9 µM (inactive) | 29.3 µM (inactive) | 20.5 µM (inactive) |  | 34.2 µM (inactive) |
